Entries after “also recorded” stand apart in the source; their conditions may differ. Where no end group is shown, it is not given here.
B1: fibrin fragment E: fibrin fragment E (55 kD), used digoxygenin labelled in binding experiments (protein)
chain 1: GPRVVERHQSACKDSDWPFCSDEDWNYKCPSGCRMKGLIDEVNQDFTNRINKLKNSLFEYQK
chain 2: GHRPLDKKREEAPSLRPAPPPISGGGYRARPAKAAATQKKVERKAPDAGGCLHADPDLGVLCPTGCQLQEALLQQERPIRNSVDELNNNVEAVSQTSSSSFQYMYLLK
chain 3: YVATRDNCCILDERFGSYCPTTCGIADFLSTYQTKVDKDLQSLEDILHQVENKTSEVKQLIK

Columns and labels:
HUVEC and fibroblasts [1] = experiment: Neutral Red cell metabolism cytotoxicity assay; type: cell-based, human; details: for cytotoxicity / cell viability, Neutral Red assay: HUVEC and fibroblast monocultures, 72 hours
Procedure: (§1) In order to determine whether the fibrin E analogue peptides WTM33, WTM34, WTM35, WTM36, and WTM37 are cytotoxic when applied to the HUVEC and fibroblasts used in the Angiosys™ angiogenesis assay, these reagents were examined in two different cytotoxicity assays. To simplify performance of these assays and discriminate between fibroblasts and HUVEC, cells were grown in monocultures rather than together and then treated with the experimental reagents as described below.
A Neutral Red cell metabolism assay was used to determine the cytotoxicity to HUVEC and fibroblasts of the fibrin E analogue peptides. This assay works on the basis of colorimetric measurement of a red dye which, is reported to be taken up into the lysosomes of uninjured cells. Thus the stronger the colour signal obtained from a well of cells, the greater the percentage of cells remaining viable within that well. HUVEC cells were inoculated into wells of 96 wells at a density of 5×10^3 cells per well, in endothelial cell culture medium. Fibroblasts were similarly seeded 5×10^3 cells per well. The cells were incubated for 24 hours under standard conditions to permit adherence and growth, and then treated for 72 hours with fresh medium containing fibrin E peptides over the same range of concentrations used in the Angiosys™ angiogenesis assay. For each concentration of each of the six peptides, four replicate wells of each cell type were treated and then assayed. Following incubation with the test compounds, the medium was removed and replaced with 200 μl per well of fresh medium containing 3.57 mg neutral red per 100 ml. The cells were incubated with this neutral red solution for 3 hours, after which this solution was decanted and replaced with 100 μl 1% formaldehyde/1% CaCl2. This was rapidly decanted and replaced in turn with 200 μl 50% ethanol/1% acetic acid, which was incubated at room temperature for 30 minutes to extract the neutral red from the cells. The plates were then read in a 96 well plate-format spectrophotometer, measuring absorbance at 540 nm. Mean absorbance values from each group of four wells were calculated and expressed as a percentage±standard deviation of the mean value obtained from control wells incubated in the absence of fibrin E analogue peptide.

HUVEC and fibroblasts [2] = experiment: BrdU ELISA cell proliferation cytotoxicity assay; type: cell-based, human; details: for cytotoxicity / cell proliferation, BrdU assay: HUVEC and fibroblast monocultures, 24 hours
Procedure: as §1
Cytotoxicity of the fibrin E peptide analogues was also determined by examining cell proliferation, using a commercial BrdU ELISA (Roche Molecular Biochemicals) performed according to the manufacturer's instructions. This assay quantifies DNA synthesis as a measure of cellular proliferation, as stimulation or inhibition of cell replication will require a concomitant change in the rate of DNA synthesis. Measurement of DNA synthesis is achieved by incubating proliferating cells in medium in which thymidine has been replaced with the pyrimidine analogue 5-bromo-2′-deoxyuridine (BrdU). Once incorporated into the cellular DNA, BrdU is measured by immunoassay. Briefly, HUVEC and fibroblasts were seeded as monocultures into 96 well plates at a density of 5×10^3 cells per well, to a final volume of 100 μl per well in endothelial cell culture medium. At the end of an initial culture period of 72 hours under standard conditions, while the cells were still proliferating, fibrin E analogue peptides were added to a range of final concentrations, as shown in the FIG. 8. Each treatment concentration of each peptide was administered to four replicate wells. Control cells received standard medium without test compounds. The cells were incubated for 24 hours with the test compounds, before 10 μl of stock BrdU solution (100 μM) was added to give a final concentration of 10 μM BrdU, and the cells were incubated for a further 2 hours. The test medium was then removed from the cells and replaced with 200 μl per well of Fixing/Denaturing solution, which was incubated on the cells for a further 30 minutes at room temperature. This was then replaced with 100 μl per well anti-BrdU-POD (mouse monoclonal clone BMG 6H8, Fab fragments conjugated to peroxidase) prepared as directed, which was left on the cells for a further 90 minutes at room temperature. The antibody conjugate was then removed from the wells by rinsing three times in 200 μl per well of washing buffer (PBS) before 100 μl well substrate solution (tetramethyl-benzidine) was added and incubated at room temperature until colour development was sufficient for photometric detection (approximately 15 minutes). Absorbance at 370 nm was measured on a multi-well plate ELISA plate reader (Dynatech), with a reference wavelength of 492 nm. Mean absorbance values from each group of four wells were calculated and expressed as a percentage±standard deviation of the mean value obtained from control wells incubated in the absence of fibrin E analogue peptide.

Chick fibroblasts = experiment: Cell immunohistochemistry; type: binding; details: 8 mg per ml; 2 hours
Procedure: Chick fibroblasts were cultured in a 25 cm^2 flask (Nunc) until confluent (approximately 3×10^6 cells). The cells were washed in PBS and then trypsinised and diluted to 3×10^5 cells per ml in Dulbecco modified medium with 10% foetal calf serum. […] of the cells suspension was plated into each well of a Nunc culture well slide. The cells were incubated overnight to allow adhesion and recovery from the passaging. Digoxygenin labelled fibrin fragment E was added to a final concentration of 8 mg per ml. Control wells contained unconjugated digoxygenin and PBS.
The cells were rinsed after 2 hours with PBS then washed 3 times in TBS followed by one wash in distilled water. The cells were then incubated for 2 hours with sheep anti-digoxygenin alkaline phosphatase. The slides were then washed three times in TBS and developed with NBT and BCIP in bicarbonate buffer pH 9.8. The slides were air dried and then mounted for observation of membrane staining under the microscope.

[3] = tested on: Chick fibroblasts, Cos7, mouse 3T3 and human embryonic lung cells (HEL); experiment: Cell binding assays (absorbance at 405 nm); details: 0-30 mg per well; 6 hours; each of the cell types
Procedure: Chick fibroblasts, Cos7, mouse 3T3 and human embryonic lung cells (HEL) were cultured in a 25 cm^2 flask (Nunc) until confluent (approximately 3×10^6 cells). The cells were trypsinised and resuspended at concentration of 1.3×10^5 cells/ml. 200 μl of this cell suspension was added to each well of a 96 well culture plate (Nunc). The cells were incubated overnight at 37° C. to allow adherence and recovery. The cells were then divided into three sections, digoxygenin controls, PBS controls and digoxygenin labelled fragment E tests. Increasing concentrations of digoxygenin and digoxygenin labelled fibrin fragment E were applied from 0-30 mg per well. The plates were incubated for 6 hours at 37° C. under culture conditions.
The plates were emptied of media and washed three times with PBS. The cells were then incubated for 2 hours with sheep antidigoxygenin alkaline phosphatase and developed with p-nitrophenyl phosphate in bicarbonate buffer pH 9.8. The plates were read on a Titertek Multiscan plate reader at 405 nm.

| Molecule | cytotoxicity / cell survival, Neutral Red assay (HUVEC and fibroblasts [1]; 3, 12, 100 μg/ml) | cytotoxicity / cell viability, Neutral Red assay (HUVEC and fibroblasts [1]) | cytotoxicity / cell survival, BrdU assay (HUVEC and fibroblasts [2]; 3, 12, 100 μg/ml) | cytotoxicity / cell proliferation, BrdU assay (HUVEC and fibroblasts [2]) | cell proliferation, BrdU assay (HUVEC and fibroblasts [2]; higher concentrations) | binding to cells (membrane staining) (Chick fibroblasts) | binding to cells (absorbance at 405 nm compared to controls) [3] |
| --- | --- | --- | --- | --- | --- | --- | --- |
| SLRPAPPPISGGGYR [WTM33, SLRPAPPPISGGGYR] | no effect on survival of either cell type | not cytotoxic | no effect on survival of either cell type | not cytotoxic |  |  |  |
| SVDELNNNVEAVSQT [WTM36, SVDELNNNVEAVSQT] |  | not cytotoxic; also recorded: no reduction in the viability of the cells |  | not cytotoxic; also recorded: exhibited an effect on the cell proliferation | potential for reduction in cell proliferation |  |  |
| SSSSFQYMYLL [WTM37, SSSSFQYMYLL] |  | no toxicity to either cell type |  | no toxicity to either cell type |  |  |  |
| QLQEALLQQERPIRN [WTM35, QLQEALLQQERPIRN] |  | not cytotoxic; also recorded: no toxicity |  | not cytotoxic; also recorded: no toxicity |  |  |  |
| B1 |  |  |  |  |  | shown to bind | high absorbance |

Reference: patent US20040132969A1, “Antibodies, peptides, analogs and uses thereof” (priority 2000, published 2004)
